According to patent US6855730B2, “3-methylidenyl-2-indolinone modulators of protein kinase” (Sugen, Inc., priority 1998, dated 2005):

biological target: EGFR (Homo sapiens, UniProt P00533); test: EGFR assay (cellular ELISA, NIH 3T3/C7 cells); format: cell-based; set-up: expressed in transfected cells; host or cells: NIH 3T3/C7; conditions: read-out: cell EGF IC50
Experimental: EGF Receptor kinase activity in cells genetically engineered to express human EGF-R can be measured as described below:
Materials and Reagents. • a. […] 05-101 (UBI) (a monoclonal antibody recognizing an EGFR extracellular domain). • c. Anti-phosphotyosine antibody (anti-Ptyr) (polyclonal). • d. Detection antibody: Goat anti-rabbit IgG horse radish peroxidase conjugate, TAGO, Inc. Burlingame, Calif. • e. TBST buffer:
• Keep solution in dark at 4° C. until used. • h. Stock reagents of:
Pre-coat ELISA Plate • 1. […] Coated plates are good for up to 10 days when stored at 4° C. • 2. On day-of use, remove coating buffer and replace with blocking buffer (5% Carnation Instant NonFat Dry Milk in PBS). Incubate the plate, shaking, at room temperature (about 23° C. to 25° C.) for 30 minutes. Just prior to use, remove blocking buffer and wash plate 4 times with TBST buffer.
Seeding Cells • 1. […] Choose dishes having 80-90% confluence for the experiment. Trypsinize cells and stop reaction by adding 10% CS DMEM medium. Suspend cells in DMEM medium (10% CS DMEM medium) and centrifuge once at 1000 rpm at room temperature for 5 minutes. • 3. Resuspend cells in seeding medium (DMEM, 0.5% bovine serum), and count the cells using trypan blue. Viability above 90% is acceptable. Seed cells in DMEM medium (0.5% bovine serum) at a density of 10,000 cells per well, 100 μl per well, in a 96 well microtiter plate. Incubate seeded cells in 5% CO2 at 37° C. for about 40 hours.
Assay Procedures. • 1. Check seeded cells for contamination using an inverted microscope. Dilute test compounds stock (10 mg/ml in DMSO) 1:10 in DMEM medium, then transfer 5 μl to a test well for a test compounds drug dilution of 1:200 and a final DMSO concentration of 1%. Control wells receive DMSO alone. Incubate in 5% CO2 at 37° C. for one hour. • 2. Prepare EGF ligand: dilute stock EGF in DMEM so that upon transfer of 10 μl dilute EGF (1:12 dilution), 25 nM final concentration is attained. • 3. Prepare fresh 10 ml HNTG* sufficient for 100 μl per well wherein HNTG* comprises: HNTG stock (2.0 ml), milli-Q H2O (7.3 ml), EDTA, 100 mM, pH 7.0 (0.5 ml), Na3VO4 0.5 M (0.1 ml) and Na4(P2O7), 0.2 M (0.1 ml). • 4. Place on ice. • 5. After two hours incubation with drug, add prepared EGF ligand to cells, 10 μl per well, to yield a final concentration of 25 nM. Control wells receive DMEM alone. Incubate, shaking, at room temperature, for 5 minutes. • 6. Remove test compound, EGF, and DMEM. Wash cells twice with PBS. Transfer HNTG* to cells, 100 μl per well. Place on ice for 5 minutes. Meanwhile, remove blocking buffer from other ELISA plate and wash with TBST as described above. • 7. With a pipette tip securely fitted to a micropipettor, scrape cells from plate and homogenize cell material by repeatedly aspirating and dispensing the HNTG* lysis buffer. Transfer lysate to a coated, blocked, and washed ELISA plate. Incubate shaking at room temperature for one hour. • 8. Remove lysate and wash 4 times with TBST. Transfer freshly diluted anti-Ptyr antibody to ELISA plate at 100 μl per well. Incubate shaking at room temperature for 30 minutes in the presence of the anti-Ptyr antiserum (1:3000 dilution in TBST). • 9. Remove the anti-Ptyr antibody and wash 4 times with TBST. Transfer the freshly diluted TAGO 30 anti-rabbit IgG antibody to the ELISA plate at 100 μl per well. Incubate shaking at room temperature for 30 minutes (anti-rabbit IgG antibody: 1:3000 dilution in TBST). • 10. Remove detection antibody and wash 4 times with TBST. Transfer freshly prepared ABTS/H2O2 solution to ELISA plate, 100 μl per well. Incubate at room temperature for 20 minutes. ABTS/H2O2 solution: 1.2 μl 30% H2O2 in 10 ml ABTS stock. • 11. Stop reaction by adding 50 μl 5N H2SO4 (optional), and determine O.D. at 410 nm. • 12. The maximal phosphotyrosine signal is determined by subtracting the value of the negative controls from the positive controls. […]

EGFR, sequence (P00533 25-1210): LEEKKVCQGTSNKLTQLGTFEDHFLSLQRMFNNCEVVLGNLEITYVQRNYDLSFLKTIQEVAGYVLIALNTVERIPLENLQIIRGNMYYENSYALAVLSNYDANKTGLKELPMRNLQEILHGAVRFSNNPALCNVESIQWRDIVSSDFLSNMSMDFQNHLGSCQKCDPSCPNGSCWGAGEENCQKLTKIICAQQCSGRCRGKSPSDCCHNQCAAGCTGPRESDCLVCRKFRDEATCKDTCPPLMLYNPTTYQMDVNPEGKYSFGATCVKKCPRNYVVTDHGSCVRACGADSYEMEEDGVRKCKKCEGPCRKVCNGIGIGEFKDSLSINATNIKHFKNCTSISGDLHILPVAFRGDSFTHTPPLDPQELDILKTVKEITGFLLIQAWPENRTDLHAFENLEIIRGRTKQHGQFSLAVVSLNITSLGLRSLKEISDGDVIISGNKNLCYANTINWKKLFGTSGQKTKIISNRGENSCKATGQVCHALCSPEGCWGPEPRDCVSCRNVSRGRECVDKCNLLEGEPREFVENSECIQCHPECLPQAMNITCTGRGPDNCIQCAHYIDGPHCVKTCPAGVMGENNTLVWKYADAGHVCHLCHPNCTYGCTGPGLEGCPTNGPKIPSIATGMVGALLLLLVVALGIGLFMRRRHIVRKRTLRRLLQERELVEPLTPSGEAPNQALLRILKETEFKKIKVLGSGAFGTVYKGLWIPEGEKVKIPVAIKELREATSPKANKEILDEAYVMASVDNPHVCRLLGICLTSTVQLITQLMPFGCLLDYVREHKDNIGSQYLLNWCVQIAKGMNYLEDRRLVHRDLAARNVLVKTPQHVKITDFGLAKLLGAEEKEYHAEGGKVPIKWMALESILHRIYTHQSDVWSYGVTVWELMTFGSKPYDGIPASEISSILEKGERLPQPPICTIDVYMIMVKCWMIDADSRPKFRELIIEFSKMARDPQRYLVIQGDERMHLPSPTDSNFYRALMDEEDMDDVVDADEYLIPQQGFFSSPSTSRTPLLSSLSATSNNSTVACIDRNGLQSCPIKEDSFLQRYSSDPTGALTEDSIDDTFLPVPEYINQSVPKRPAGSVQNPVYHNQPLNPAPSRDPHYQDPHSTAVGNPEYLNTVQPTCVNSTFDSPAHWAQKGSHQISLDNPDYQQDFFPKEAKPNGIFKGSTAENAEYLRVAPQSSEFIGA

| IC50 [µM] | Compound |
| --- | --- |
| 79.3 | COc1c(C(C)C)cc(/C=C2/C(=O)Nc3ccc(Br)cc32)cc1C(C)C [Example 54, 5-Bromo-3-(3,5-diisopropyl-4-methoxybenzylidene)-1,3-dihydroindol-2-one] |
| 76.9 | COc1ccc(/C=C2/C(=O)Nc3ccc(F)cc32)cc1C(C)C [Example 44, 5-Fluoro-3-(3-isopropyl-4-methoxybenzylidene)-1,3-dihydroindol-2-one] |
| 71.9 | COc1ccc(/C=C2/C(=O)Nc3ccccc32)cc1C1CCCCC1 [Example 12, 3-(3-Cyclohexyl-4-methoxybenzylidene)-1,3-dihydroindol-2-one] |
| > 100 | COc1ccc(/C=C2/C(=O)Nc3ccc(F)cc32)cc1C1CCCCC1 [Example 43, 3-(3-Cyclohexyl-4-methoxybenzylidene)-5-fluoro-1,3-dihydroindol-2-one] |
| > 100 | CC(C)c1cc(/C=C2/C(=O)Nc3ccc(Br)cc32)cc(C(C)C)c1OCCN1CCOCC1 [Example 57, 5-Bromo-3-[3,5-diisopropyl-4-(2-morpholin-4-ylethoxy)benzylidene]-1,3-dihydroindol-2-one] |
| 72.9 | COc1ccc(/C=C2/C(=O)Nc3ccc(F)cc32)cc1C1CCCC1 [Example 11, 3-(3-Cyclopentyl-4-methoxybenzylidene)-5-fluoro-1,3-dihydroindol-2-one] |
| > 100 | COc1ccc(/C=C2/C(=O)Nc3ccccc32)cc1-c1ccccc1 [Example 65, 3-(6-Methoxybiphenyl-3-ylmethylene)-1,3-dihydroindol-2-one] |
| 38.5 | CC(C)c1cc(/C=C2/C(=O)Nc3ccc(Cl)cc32)cc(C(C)C)c1OCCN1CCOCC1 [Example 24, 5-chloro-3-[3,5-diisopropyl-4-(2-morpholin-4-ylethoxy)-benzylidene]-1,3-dihydroindol-2-one] |
| 94 | COc1ccc(/C=C2/C(=O)Nc3ccc(CCN4CCOCC4)cc32)cc1-c1ccsc1 [Example 26, 3-(4-Methoxy-3-thiophen-3-ylbenzylidene)-5-(2-morpholin-4-yl-ethyl)-1,3-dihydroindol-2-one] |
| > 100 | COc1ccc(/C=C2/C(=O)Nc3ccc(F)cc32)cc1-c1ccccc1 [Example 37, 5-Fluoro-3-(6-methoxybiphenyl-3-ylmethylene)-1,3-dihydroindol-2-one] |
| > 100 | COc1cc(/C=C2/C(=O)Nc3ccccc32)c(-c2ccc3ccccc3c2)cc1OC [Example 62, 3-(4,5-Dimethoxy-2-naphthalen-2-ylbenzylidene)-1,3-dihydroindol-2-one] |
| 53.2 | CC(=O)Nc1ccc2c(c1)NC(=O)/C2=C\c1ccc2c(c1)CCC(C)(C)O2 [Example 33, N-[3-(2,2-Dimethylchroman-6-ylmethylene)-2-oxo-2,3-dihydro-1H-indol-6-yl]-acetamide] |
| 40.5 | COC(=O)c1ccc2c(c1)/C(=C\c1cc(C(C)C)c(OC)c(C(C)C)c1)C(=O)N2 [Example 6, 3-(3,5-Diisopropyl-4-methoxybenzylidene)-2-oxo-2,3-dihydro-1H-indole-5-carboxylic acid methyl ester] |
| 38.2 | CC1(C)CCc2cc(C=C3C(=O)Nc4ccc(Br)cc43)ccc2O1 (racemic) [Example 34, 5-Bromo-3-(2,2-dimethylchroman-6-ylmethylene)-1,3-dihydroindol-2-one] |
| > 100 | CCOc1cccc(-c2cc(OC)c(OC)cc2/C=C2/C(=O)Nc3ccccc32)c1 [Example 58, 3-(3′-Ethoxy-4,5-dimethoxybiphenyl-2-ylmethylene)-1,3-dihydroindol-2-one] |
| > 100 | COc1ccc(/C=C2/C(=O)Nc3ccc(Cl)cc32)cc1-c1ccccc1 [Example 67, 5-Chloro-3-(6-methoxybiphenyl-3-ylmethylene)-1,3-dihydroindol-2-one] |
